Source: US10918713B2, “Epitopes from allergen proteins and methods and uses for immune response modulation” (LA JOLLA INSTITUTE FOR ALLERGY AND IMMUNOLOGY, priority 2012, dated 2021)
“And” between values parts separate entries of the source, which are not always exact repeats. Identical values can stand only once.

Legend:
[1] = target: DPB1*0401 (Homo sapiens, UniProt P04440+P20036); test: biochemical
[2] = target: DRB4*0101 (Homo sapiens, UniProt P01903+P13762, G164S); test: biochemical
[3] = test system: PBMC from allergic donors; test: IFN-γ ELISPOT with extract-stimulated short-term lines; format: cell-based, human; details: positive donor/peptide response; each table line is one donor
Description: (§1) Spots were counted by computer-assisted image analysis (Zeiss, KS-ELISPOT reader, Munich, Germany).
(§2) Each assay was performed in triplicate. The level of statistical significance was determined with a Student's t-test using the mean of triplicate values of the response against relevant pools or individual peptides versus the response against the DMSO control.

[4] = test system: PBMC from allergic donors; test: IL-5 ELISPOT with extract-stimulated short-term lines; format: cell-based, human; details: positive donor/peptide response; each table line is one donor
Description: as §1, §2

[5] = test system: PBMC from allergic donors; test: Dual ELISPOT, total IL-5 and IFN-γ response (SFC); format: cell-based, human; details: sum of IFNg and IL-5; each table line is one donor
Description: as §1, §2

Compound	IC50 [1] [nM]	IC50 [2] [nM]	also measured
CC[C@H](C)[C@H](NC(=O)[C@H](Cc1ccc(O)cc1)NC(=O)[C@H](C)NC(=O)[C@H](CC(=O)O)NC(=O)[C@H](C)NC(=O)[C@@H](NC(=O)CNC(=O)[C@@H](N)CCC(N)=O)C(C)C)C(=O)N[C@H](C(=O)N[C@@H](CC(C)C)C(=O)N[C@H](C(=O)N[C@H](C(=O)N[C@@H](CC(C)C)C(=O)N1CCC[C@H]1C(=O)N[C@@H](CCCCN)C(=O)O)[C@@H](C)O)C(C)C)[C@@H](C)O [3324.0011]	2010		
CC[C@H](C)[C@H](N)C(=O)N[C@H](C(=O)N[C@@H](Cc1ccc(O)cc1)C(=O)N[C@H](C(=O)N[C@@H](C)C(=O)N[C@H](C(=O)N[C@@H](C)C(=O)N[C@H](C(=O)N[C@@H](CC(C)C)C(=O)N1CCC[C@H]1C(=O)N[C@@H](CC(N)=O)C(=O)N[C@@H](Cc1ccc(O)cc1)C(=O)N[C@@H](CS)C(=O)N[C@@H](CCCNC(=N)N)C(=O)N[C@@H](C)C(=O)O)[C@@H](C)O)[C@@H](C)O)C(C)C)[C@@H](C)O [3324.0014]	2990		
CSCC[C@H](NC(=O)[C@@H]1CCCN1C(=O)CNC(=O)[C@@H](NC(=O)[C@H](CC(C)C)NC(=O)[C@@H]1CCCN1C(=O)[C@H](CCCCN)NC(=O)[C@H](C)NC(=O)[C@H](CO)NC(=O)[C@H](CCCCN)NC(=O)[C@@H](NC(=O)[C@H](CCC(=O)O)NC(=O)[C@H](Cc1c[nH]c2ccccc12)NC(=O)[C@@H](N)CC(C)C)C(C)C)[C@@H](C)O)C(=O)N[C@@H](CC(N)=O)C(=O)O [3337.0031]			Response (SFC/10^6) IFNg [3]: 90 SFC/10^6 and 703 SFC/10^6; Response (SFC/10^6) IL-5 [4]: 1010 SFC/10^6; Response (SFC/10^6) Total [5]: 90 SFC/10^6 and 1713 SFC/10^6

Second part, led by results:

IC50 [1] [nM]	IC50 [2] [nM]	Compound	also measured
28000	301	CC[C@H](C)[C@H](N)C(=O)N[C@@H](C)C(=O)N[C@@H](CO)C(=O)N[C@@H](CC(C)C)C(=O)N[C@@H](Cc1ccccc1)C(=O)N[C@@H](C)C(=O)N[C@@H](C)C(=O)N[C@@H](C)C(=O)NCC(=O)N[C@@H](CC(C)C)C(=O)N[C@@H](C)C(=O)N[C@@H](C)C(=O)N[C@@H](C)C(=O)N[C@@H](C)C(=O)N1CCC[C@H]1C(=O)O [3324.0015]	
	28	CC(C)C[C@H](NC(=O)CNC(=O)[C@H](C)NC(=O)[C@H](C)NC(=O)[C@H](C)N)C(=O)N[C@@H](C)C(=O)N[C@@H](C)C(=O)N[C@@H](C)C(=O)N[C@@H](C)C(=O)N1CCC[C@H]1C(=O)N[C@@H](CC(C)C)C(=O)N[C@@H](CCC(=O)O)C(=O)N[C@@H](CO)C(=O)N[C@@H](CCCNC(=N)N)C(=O)N[C@@H](CCC(N)=O)C(=O)O [3324.0017]	
